Data reported in ChEMBL document CHEMBL1138722, “3-(2-Methoxytetrahydrofuran-2-yl)pyrazoles: a novel class of potent, selective cyclooxygenase-2 (COX-2) inhibitors” (Bioorg Med Chem Lett, 2004).

Columns and labels:
[1] = target: T1, Prostaglandin G/H synthase 1 (Homo sapiens, UniProt P23219); assay: In vitro inhibition of Prostaglandin G/H synthase 1 in human whole blood; format: tissue-based
[2] = target: T2, Prostaglandin G/H synthase 2 (Homo sapiens, UniProt P35354); assay: In vitro inhibition of Prostaglandin G/H synthase 2 in human whole blood; format: tissue-based
T2 sequence (P35354 whole entry): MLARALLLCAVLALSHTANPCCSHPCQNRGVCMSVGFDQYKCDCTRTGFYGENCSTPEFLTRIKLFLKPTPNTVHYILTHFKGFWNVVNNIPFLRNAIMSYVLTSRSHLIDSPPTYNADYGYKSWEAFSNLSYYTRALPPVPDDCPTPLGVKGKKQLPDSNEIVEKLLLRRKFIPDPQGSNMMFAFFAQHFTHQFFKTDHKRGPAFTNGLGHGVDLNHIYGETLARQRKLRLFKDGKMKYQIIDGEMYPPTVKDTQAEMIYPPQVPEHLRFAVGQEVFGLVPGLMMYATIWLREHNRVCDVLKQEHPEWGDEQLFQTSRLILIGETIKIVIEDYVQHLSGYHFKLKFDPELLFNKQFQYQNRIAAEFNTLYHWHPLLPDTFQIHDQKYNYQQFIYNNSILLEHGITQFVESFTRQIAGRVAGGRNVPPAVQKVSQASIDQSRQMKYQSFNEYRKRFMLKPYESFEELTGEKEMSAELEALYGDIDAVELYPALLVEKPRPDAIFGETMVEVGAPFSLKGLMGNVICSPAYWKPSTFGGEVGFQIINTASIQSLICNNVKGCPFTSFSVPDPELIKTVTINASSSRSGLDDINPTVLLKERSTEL

[3] = target: T1, Prostaglandin G/H synthase 1; assay: In vitro inhibition of Prostaglandin G/H synthase 1 in human whole blood at 100 uM; format: tissue-based
[4] = target: T3, Prostaglandin G/H synthase 2 (Homo sapiens) (UniProt P35354); details: Blood, at 1 µM
T3 sequence (whole entry): T2 sequence (P35354 whole entry)
Description: In vitro inhibition of Prostaglandin G/H synthase 2 in human whole blood at 1 uM

[5] = target: T3, Prostaglandin G/H synthase 2 (Homo sapiens); details: Blood, at 10 µM
Description: In vitro inhibition of Prostaglandin G/H synthase 2 in human whole blood at 10 uM

T1 sequence (P23219 whole entry): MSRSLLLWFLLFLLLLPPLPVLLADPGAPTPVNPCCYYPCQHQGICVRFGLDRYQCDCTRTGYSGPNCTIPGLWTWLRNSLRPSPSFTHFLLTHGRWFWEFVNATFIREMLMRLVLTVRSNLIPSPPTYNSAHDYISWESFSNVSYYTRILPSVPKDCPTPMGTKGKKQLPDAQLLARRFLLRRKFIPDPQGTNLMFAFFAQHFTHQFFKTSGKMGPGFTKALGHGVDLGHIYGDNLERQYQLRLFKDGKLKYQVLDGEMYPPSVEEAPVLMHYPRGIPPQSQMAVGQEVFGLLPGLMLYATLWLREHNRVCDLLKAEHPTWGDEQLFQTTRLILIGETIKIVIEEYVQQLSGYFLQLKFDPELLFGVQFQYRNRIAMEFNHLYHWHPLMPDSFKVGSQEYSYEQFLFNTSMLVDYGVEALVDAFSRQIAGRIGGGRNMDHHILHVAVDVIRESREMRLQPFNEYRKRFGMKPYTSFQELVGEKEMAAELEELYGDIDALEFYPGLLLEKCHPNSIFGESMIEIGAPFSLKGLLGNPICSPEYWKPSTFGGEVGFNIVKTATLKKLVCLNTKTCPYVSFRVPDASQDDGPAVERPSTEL

| SMILES | IC50 [1] [µM] | IC50 [2] [µM] | inhibition [3] [%] | inhibition [4] [%] | inhibition [5] [%] |
| --- | --- | --- | --- | --- | --- |
| COC1(c2cc(-c3ccc(S(C)(=O)=O)cc3)n(-c3ccc(C(F)(F)F)cc3)n2)CCCO1 (stereo not drawn) | – | – | 50 | 25 | 70 |
| COC1(c2cc(-c3ccc(S(C)(=O)=O)cc3)n(-c3ccc(C#N)cc3)n2)CCCO1 (stereo not drawn) | – | – | 0 | 30 | 25 |
| COC1(c2cc(-c3ccc(S(C)(=O)=O)cc3)n(-c3ccccc3)n2)CCCO1 (stereo not drawn) | – | – | 20 | 30 | 65 |

Continued, values first:

| IC50 [1] [µM] | IC50 [2] [µM] | inhibition [3] [%] | inhibition [4] [%] | inhibition [5] [%] | SMILES |
| --- | --- | --- | --- | --- | --- |
| > 100 | 1.2 | 55 | 55 | 90 | COC1(c2cc(-c3ccc(S(C)(=O)=O)cc3)n(-c3ccc(C)cc3)n2)CCCO1 (stereo not drawn) |
| – | – | 60 | 25 | 80 | COC1(c2cc(-c3ccc(S(C)(=O)=O)cc3)n(-c3ccc(Cl)cc3)n2)CCCO1 (stereo not drawn) |
| – | – | 72 | 13 | 84 | COC1(c2cc(-c3ccc(S(C)(=O)=O)cc3)n(-c3ccc(Br)cc3)n2)CCCO1 (stereo not drawn) |
| – | – | 25 | 40 | 75 | COC1(c2cc(-c3ccc(S(C)(=O)=O)cc3)n(-c3ccc(F)cc3)n2)CCCO1 (stereo not drawn) |
